# Data published in US20230167103A1 (Bayer Aktiengesellschaft, priority 2020, published 2023).
# Biological target: T1, human DGKζ (Homo sapiens, UniProt Q13574)
# T1 construct: made in house; host or cells: Sf9 insect cells, baculovirus
# Test: Human DGKζ kinase activity inhibition assay (ADP-Glo)
# Assay type: biochemical
# Conditions: example compounds; recombinant full-length human DGKζ, 1,2-dioleoyl-sn-glycerol 7 μM, ATP 55 μM, 20 min at 22° C.; read-out: IC50 values of examples in in vitro human DGKζ kinase activity inhibition assays
# Procedure: Human diacylglycerol kinase zeta (DGKζ) inhibitory activity of compounds of the present invention was quantified employing the human DGKζ kinase activity assay as described in the following paragraphs. In essence, the enzyme activity was measured by quantification of the adenosine-di-phosphate (ADP) generated as a co-product of the enzyme reaction via the “ADP-Glo™ Kinase Assay” kit from the company Promega. This detection system works as follows: In a first step the adenosine-tri-phosphate (ATP) not consumed in the kinase reaction is quantitatively converted to cyclic adenosine-mono-phosphate (cAMP) employing an adenylate cyclase (“ADP-Glo-reagent”), then the adenylate cyclase is stopped and the ADP generated in the kinase reaction is converted to ATP, which subsequently generates in a luciferase-based reaction a glow-luminescence signal (“Kinase Detection Reagent”).
# C-terminally FLAG-tagged, recombinant full-length human DGKζ (inhouse expressed in baculovirus infected insect cells, purified using anti-Flag pulldown and size exclusion chromatography) was used as enzyme. As an alternative, commercially available enzyme by Carnabio can be used. As substrate for the kinase, 1,2-dioleoyl-sn-glycerol, reconstituted in octyl-β-D-glucopyranoside micelles, was used. […] Subsequently, 22.55 volumes of a 510 mM solution of octyl-β-D-glucopyranoside (Sigma-Aldrich, Cat. #O8001-10G) in 50 mM MOPS buffer (pH 7.4) were added, and the mixture was sonicated in an ultrasonic bath for 20 s. Then 35 volumes of 50 mM MOPS buffer (pH 7.4) were added to yield a solution of 0.28 mM 1,2 dioleoyl-sn-glycerol and 200 mM octyl-β-D-glucopyranoside, which was aliquoted, flash-frozen in liquid nitrogen, and stored at −20° C. until use.
# For the assay 50 nl of a 100-fold concentrated solution of the test compound in dimethyl sulfoxide (DMSO, Sigma) was pipetted into either a white 1536-well or a white low-volume 384-well microtiter plate (both Greiner Bio-One, Frickenhausen, Germany). […] The concentration of DGKζ was adjusted depending of the activity of the enzyme lot and was chosen appropriate to have the assay in the linear range, a typical concentration is about 0.1 nM. The reaction was stopped by the addition of 2.5 μL of “ADP-Glo-reagent” (1 to 1.5 diluted with water) and the resulting mixture was incubated at 22° C. for 1 h to convert the ATP not consumed in the kinase reaction completely to cAMP. Subsequently 2.5 μl of the “kinase detection reagent” (1.2 fold more concentrated than recommended by the producer) were added, the resulting mixture was incubated at 22° C. for 1 h and then the luminescence measured with a suitable measurement instrument (e.g. Viewlux™ from Perkin-Elmer). The amount of emitted light was taken as a measure for the amount of ADP generated and thereby for the activity of the DGKζ.
# The data were normalised (enzyme reaction without inhibitor=0% inhibition, all other assay components but no enzyme=100% inhibition).
# T1 sequence (Q13574 with tags, fused parts or gaps): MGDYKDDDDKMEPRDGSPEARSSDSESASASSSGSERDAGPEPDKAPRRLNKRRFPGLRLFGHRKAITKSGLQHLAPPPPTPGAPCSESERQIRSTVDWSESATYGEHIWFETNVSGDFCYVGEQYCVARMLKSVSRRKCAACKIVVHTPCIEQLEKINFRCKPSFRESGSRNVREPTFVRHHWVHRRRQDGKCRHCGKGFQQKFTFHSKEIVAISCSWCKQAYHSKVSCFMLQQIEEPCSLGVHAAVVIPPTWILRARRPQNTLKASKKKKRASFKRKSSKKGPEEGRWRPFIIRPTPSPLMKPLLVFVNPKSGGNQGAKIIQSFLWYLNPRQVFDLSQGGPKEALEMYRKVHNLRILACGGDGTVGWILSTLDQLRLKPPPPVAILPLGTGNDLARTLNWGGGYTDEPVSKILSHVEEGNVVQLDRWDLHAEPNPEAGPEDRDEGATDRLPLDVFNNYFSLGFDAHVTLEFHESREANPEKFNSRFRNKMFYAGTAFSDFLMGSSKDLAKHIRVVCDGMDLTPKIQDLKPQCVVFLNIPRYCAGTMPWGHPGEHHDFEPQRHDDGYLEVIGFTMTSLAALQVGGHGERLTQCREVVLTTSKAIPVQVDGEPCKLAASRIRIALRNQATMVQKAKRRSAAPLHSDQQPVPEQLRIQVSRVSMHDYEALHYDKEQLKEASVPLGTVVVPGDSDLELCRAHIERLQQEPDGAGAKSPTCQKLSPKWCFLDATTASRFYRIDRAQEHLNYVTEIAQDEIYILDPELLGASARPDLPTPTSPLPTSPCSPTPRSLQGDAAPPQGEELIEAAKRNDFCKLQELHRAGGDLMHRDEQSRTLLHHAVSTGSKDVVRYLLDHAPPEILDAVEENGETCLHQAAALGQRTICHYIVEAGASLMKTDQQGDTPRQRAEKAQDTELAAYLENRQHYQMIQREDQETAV
row,SMILES,IC50 [nM]
1,"CC(C(N)=O)N(c1ccc(F)cc1)c1nc(N)c(C(=O)c2cc(C(=O)N3CCCC3)no2)s1 (racemic) [Example 19, rac-2-(N-[4-amino-5-[3-(pyrrolidine-1-carbonyl)isoxazole-5-carbonyl]thiazol-2-yl]-4-fluoro-anilino)propanamide]",315
2,"Cc1noc(C(=O)c2sc(N(c3ccc(F)cc3)C(C)C(N)=O)nc2N)n1 (racemic) [Example 52, rac-2-(N-[4-amino-5-(3-methyl-1,2,4-oxadiazole-5-carbonyl)thiazol-2-yl]-4-fluoro-anilino)propanamide]",412
3,"CCOC(=O)c1cc(C(=O)c2sc(N(c3ccc(F)cc3)C(C)C(N)=O)nc2N)on1 (racemic) [Example 9, rac-Ethyl 5-[4-amino-2-(N-(2-amino-1-methyl-2-oxo-ethyl)-4-fluoro-anilino)thiazole-5-carbonyl]isoxazole-3-carboxylate]",189
4,"COCC(C)NC(=O)c1cc(C(=O)c2sc(N(c3ccc(F)cc3)C(C)C(N)=O)nc2N)on1 (racemic) [Example 36, 5-[4-amino-2-(N-(2-amino-1-methyl-2-oxo-ethyl)-4-fluoro-anilino)thiazole-5-carbonyl]-N-(2-methoxy-1-methyl-ethyl)isoxazole-3-carboxamide]",446
5,"CC(C(N)=O)N(c1ccc(F)cc1)c1nc(N)c(C(=O)c2cc(C(=O)NC(CF)CF)no2)s1 (racemic) [Example 40, rac-5-[4-amino-2-(N-(2-amino-1-methyl-2-oxo-ethyl)-4-fluoro-anilino)thiazole-5-carbonyl]-N-[2-fluoro-1-(fluoromethyl)ethyl]isoxazole-3-carboxamide]",204
6,"CC(C(N)=O)N(c1ccc(F)cc1)c1nc(N)c(C(=O)c2cc(C(=O)Nc3cccnc3)no2)s1 (racemic) [Example 20, rac-5-[4-amino-2-(N-(2-amino-1-methyl-2-oxo-ethyl)-4-fluoro-anilino)thiazole-5-carbonyl]-N-(3-pyridyl)isoxazole-3-carboxamide]",300
7,"CC(C(N)=O)N(c1ccc(F)cc1)c1nc(N)c(C(=O)c2nc(-c3cnn(C)c3)no2)s1 (racemic) [Example 58, rac-2-(N-[4-amino-5-[3-(1-methylpyrazol-4-yl)-1,2,4-oxadiazole-5-carbonyl]thiazol-2-yl]-4-fluoro-anilino)propanamide]",325
8,"CC(C(N)=O)N(c1ccc(F)cc1)c1nc(N)c(C(=O)c2cc(C(=O)NC3CC3)no2)s1 (racemic) [Example 15, rac-5-[4-amino-2-(N-(2-amino-1-methyl-2-oxo-ethyl)-4-fluoro-anilino)thiazole-5-carbonyl]-N-cyclopropyl-isoxazole-3-carboxamide]",565
9,"CC(C(N)=O)N(c1ccc(F)cc1)c1nc(N)c(C(=O)c2cc(C(=O)N3CCOCC3)no2)s1 (racemic) [Example 13, rac-2-(N-[4-amino-5-[3-(morpholine-4-carbonyl)isoxazole-5-carbonyl]thiazol-2-yl]-4-fluoro-anilino)propanamide]",977
10,"CC(C(N)=O)N(c1ccc(F)cc1)c1nc(N)c(C(=O)c2cc(-c3ccccc3)no2)s1 (single isomer, unassigned) [Example 3.2, 2-(N-[4-amino-5-(3-phenylisoxazole-5-carbonyl)thiazol-2-yl]-4-fluoro-anilino)propanamide]",1750
11,"CC(C(N)=O)N(c1ccc(F)cc1)c1nc(N)c(C(=O)c2cc(C(=O)N[C@H]3C[C@@H](F)C3)no2)s1 (mixture of isomers) [Example 38, 5-[4-amino-2-(N-(2-amino-1-methyl-2-oxo-ethyl)-4-fluoro-anilino)thiazole-5-carbonyl]-N-(cis-3-fluorocyclobutyl)isoxazole-3-carboxamide]",344

# The next compounds have a lower IC50 than those just listed; values first:
row,IC50 [nM],SMILES
1,182,"CC(C(N)=O)N(c1ccc(F)cc1)c1nc(N)c(C(=O)c2cc(C(=O)NCC3CC3)no2)s1 (racemic) [Example 22, rac-5-[4-amino-2-(N-(2-amino-1-methyl-2-oxo-ethyl)-4-fluoro-anilino)thiazole-5-carbonyl]-N-(cyclopropylmethyl)isoxazole-3-carboxamide]"
2,17,"CC(C(N)=O)N(c1ccc(F)cc1)c1nc(N)c(C(=O)c2cc(OC3CCC(F)(F)CC3)no2)s1 (racemic) [Example 81, rac-2-(N-[4-Amino-5-[3-(4,4-difluorocyclohexoxy)isoxazole-5-carbonyl]thiazol-2-yl]-4-fluoro-anilino)propanamide]"
3,146,"CC(C(N)=O)N(c1ccc(F)cc1)c1nc(N)c(C(=O)c2cc(C(=O)N[C@H]3C[C@H](F)C3)no2)s1 (mixture of isomers) [Example 42, 5-[4-amino-2-(N-(2-amino-1-methyl-2-oxo-ethyl)-4-fluoro-anilino)thiazole-5-carbonyl]-N-(trans-3-fluorocyclobutyl)isoxazole-3-carboxamide]"
4,17,"CC(C(N)=O)N(c1ccc(F)cc1)c1nc(N)c(C(=O)c2nc(-c3ccccc3)no2)s1 (racemic) [Example 51, rac-2-(N-[4-amino-5-(3-phenyl-1,2,4-oxadiazole-5-carbonyl)thiazol-2-yl]-4-fluoro-anilino) propanamide]"
5,23,"CC(C(N)=O)N(c1ccc(F)cc1)c1nc(N)c(C(=O)c2cc(C(=O)Nc3ccccc3)no2)s1 (racemic) [Example 10, rac-5-[4-amino-2-(N-(2-amino-1-methyl-2-oxo-ethyl)-4-fluoro-anilino)thiazole-5-carbonyl]-N-phenyl-isoxazole-3-carboxamide]"
6,61,"C[C@H](C(N)=O)N(c1ccc(F)cc1)c1nc(N)c(C(=O)c2cc(-c3ccccc3)no2)s1 [Example 3.1, (R)-2-(N-[4-amino-5-(3-phenylisoxazole-5-carbonyl)thiazol-2-yl]-4-fluoro-anilino)propanamide]"
7,10,"CC(C(N)=O)N(c1ccc(F)cc1)c1nc(N)c(C(=O)c2cc(CN3CCC(F)(F)C(C)C3)no2)s1 (mixture of isomers) [Example 76, 2-(N-[4-amino-5-[3-[(4,4-difluoro-3-methyl-1-piperidyl)methyl]isoxazole-5-carbonyl]thiazol-2-yl]-4-fluoro-anilino)propanamide]"
8,104,"CC(C(N)=O)N(c1ccc(F)cc1)c1nc(N)c(C(=O)c2cc(-c3ccccc3)no2)s1 (racemic) [Example 3, rac-2-(N-[4-amino-5-(3-phenylisoxazole-5-carbonyl)thiazol-2-yl]-4-fluoro-anilino)propanamide]"
9,117,"CC(C(N)=O)N(c1ccc(F)cc1)c1nc(N)c(C(=O)c2cc(-c3ccc(OC(F)(F)F)cc3)no2)s1 (racemic) [Example 69, rac-2-(N-[4-amino-5-[3-[4-(trifluoromethoxy)phenyl]isoxazole-5-carbonyl]thiazol-2-yl]-4-fluoro-anilino)propanamide]"
10,48,"CC(C(N)=O)N(c1ccc(F)cc1)c1nc(N)c(C(=O)c2cc(C(=O)NC3CCC(F)(F)C3)no2)s1 (racemic) [Example 33, 5-[4-amino-2-(N-(2-amino-1-methyl-2-oxo-ethyl)-4-fluoro-anilino)thiazole-5-carbonyl]-N-(3,3-difluorocyclopentyl)isoxazole-3-carboxamide]"
11,27,"CC(C(N)=O)N(c1ccc(F)cc1)c1nc(N)c(C(=O)c2cc(OCc3ccccc3)no2)s1 (racemic) [Example 2, rac-2-(N-[4-amino-5-(3-benzyloxyisoxazole-5-carbonyl)thiazol-2-yl]-4-fluoro-anilino)propanamide]"
12,96,"COc1ccc(-c2cc(C(=O)c3sc(N(c4ccc(F)cc4)C(C)C(N)=O)nc3N)on2)cn1 (racemic) [Example 71, rac-2-(N-[4-amino-5-[3-(6-methoxy-3-pyridyl))isoxazole-5-carbonyl]thiazol-2-yl]-4-fluoro-anilino)propanamide]"
13,148,"CC(C(N)=O)N(c1ccc(F)cc1)c1nc(N)c(C(=O)c2cc(C(=O)N3CCCCC3)no2)s1 (racemic) [Example 27, rac-2-(N-[4-amino-5-[3-(piperidine-1-carbonyl)isoxazole-5-carbonyl]thiazol-2-yl]-4-fluoro-anilino)propanamide]"
